Several values for one entry are separate records, joined by “and”; a condition that tells them apart may be missing. Equal entries are not always repeated. Entries after “also recorded” stand apart in the source; their conditions may differ. Marks after values point to notes of the source that are not given here.
Experiments:
[1] = system: uterus and vagina of ovariectomized nude mice; experiment: Uterine, vaginal and body weight in the xenograft-bearing OVX nude mice (Example 1); details: OVX + E1
[2] = system: bone metabolism in the rat; details: cited from earlier work
[3] = system: bone metabolism in the rat; experiment: Biochemical parameters of bone metabolism (urine, serum) after DHEA and/or EM-800; format: in vivo; details: DHEA 10 mg, EM-800 75 μg
Text: Data are expressed as the means±SEM.**: P<0.01 experimental versus respective control.
It is particularly important to indicate that the combination of DHEA and EM-800 exerted unexpected beneficial effects on important biochemical parameters of bone metabolism. […] Moreover, no effect of DHEA could be detected on daily urinary calcium or phosphorus excretion (Luo et al., Endocrinology 138: 4435-4444, 1997). EM-800, decreased the urinary hydroxyproline/creatinine ratio by 48% while, similarly to DHEA, no effect of EM-800 was seen on urinary calcium or phosphorus excretion. EM-800, moreover, had no effect on serum alkaline phosphatase activity, a marker of bone formation while DHEA increased the value of the parameter by about 75% (Luo et al., Endocrinology 138: 4435-4444, 1997).

[4] = system: ZR-75-1 breast tumor xenografts; experiment: Growth of human ZR-75-1 breast tumor xenografts in OVX nude mice supplemented with estrone (DHEA, EM-800; Example 1); details: OVX + E1; for Inhibition of E1-stimulated ZR-75-1 tumor size / Average tumor weight: 9.5 months
[5] = system: rat mammary gland and endometrium; experiment: 12-week EM-800 treatment of intact rats: serum 17β-estradiol, mammary gland, endometrium; format: in vivo; details: 12 weeks
Experimental: B. Animal treated with EM-800 (0.5 mg/kg, b w per day) for 12 weeks. […] Insert.
B. Animal treated with EM-800 (0.5 mg/kg, b w per day) during 12 weeks.

[6] = system: breast and endometrial tissues; experiment: Antiestrogens tested for SERM function and estrogenic activity in breast and endometrium
Text: As used herein, a selective estrogen receptor modulator (SERM) is a compound that either directly or through its active metabolite functions as an estrogen receptor antagonist (“antiestrogen”) in breast tissue, yet provides estrogenic or estrogen-like effect on bone tissue and on serum cholesterol levels (i.e. by reducing serum cholesterol). Non-steroidal compounds that function as estrogen receptor antagonists in vitro or in human or rat breast tissue (especially if the compound acts as an antiestrogen on human breast cancer cells) is likely to function as a SERM. Conversely, steroidal antiestrogens tend not to function as SERMs because they tend not to display any beneficial effect on serum cholesterol. […] These SERMs may be called “pure SERMs”. […] This second series of SERMs may be called “mixed SERMs”. The unwanted estrogenic activities of these “mixed SERMs”, may be inhibited by addition of pure “SERMs” as shown in FIGS. 6 and 7 in in vitro tests and in FIG. 9 in an in vivo test of breast cancer.

ovariectomized rats = experiment: 5-diol alone or with Flutamide and/or EM-800 for 12 months in ovariectomized rats (bone mass, serum markers)
[7] = Concentration of EM-652 in the circulation, 6-month rat study; format: in vivo; details: intact rats, EM-652 0.5 mg/kg daily, 6-month study
[8] = EM-800 0.5 mg/kg per day, 0.5 mg/kg/day

Structure (SMILES): CC1=C(c2ccc(OC(=O)C(C)(C)C)cc2)[C@H](c2ccc(OCCN3CCCCC3)cc2)Oc2cc(OC(=O)C(C)(C)C)ccc21 [EM-800, (+)-7-pivaloyloxy-3-(4′-pivaloyloxyphenyl)-4-methyl-2-(4″-(2′″-piperidinoethoxy)phenyl)-2H-benzopyran]
- Uterine weight ([1]; EM-800 15 μg): 49 ± 3 mg
- Vaginal weight ([1]; EM-800 15 μg): 23 ± 1 mg
- Uterine weight ([1]; EM-800 50 μg): 36 ± 2 mg
- Vaginal weight ([1]; EM-800 50 μg): 15 ± 1 mg
- Uterine weight ([1]; EM-800 100 μg): 32 ± 1 mg
- Vaginal weight ([1]; EM-800 100 μg): 11 ± 1 mg
- Decrease of urinary hydroxyproline/creatinine ratio [2]: 48%
- Effect on daily urinary calcium or phosphorus excretion [2]: no effect
- Increase of serum alkaline phosphatase activity [2]: had no effect
- Serum tALP [3]: 114.11 ± 11.26 IU/L
- Urine HP/Cr [3]: 6.81 ± 0.84** μmol/mmol
- Urine calcium [3]: 17.44 ± 4.5 μmol/24h/100g
- Urine phosphorus [3]: 102.03 ± 25.13 μmol/24h/100g
- Inhibition of E1-stimulated ZR-75-1 tumor size ([4]; EM-800 15 μg oral daily): 88% and 87.5%
- Inhibition of E1-stimulated ZR-75-1 tumor size ([4]; EM-800 50 μg oral daily): 93% and 93.5%
- Inhibition of E1-stimulated ZR-75-1 tumor size ([4]; EM-800 100 μg oral daily): 94%
- Category of response: Partial ([4]; EM-800 15 μg): 1 (5.9) Number and (%)
- Category of response: Stable ([4]; EM-800 15 μg): 5 (29.4) Number and (%)
- Average tumor weight ([4]; EM-800 15 μg): 0.08 ± 0.03 g
- Category of response: Complete ([4]; EM-800 50 μg): 4 (25.0) Number and (%)
- Category of response: Partial ([4]; EM-800 50 μg): 3 (18.8) Number and (%)
- Category of response: Progression ([4]; EM-800 50 μg): 4 (25.0) Number and (%)
- Category of response: Stable ([4]; EM-800 50 μg): 5 (31.2) Number and (%)
- Average tumor weight ([4]; EM-800 50 μg): 0.03 ± 0.01 g
- Category of response: Complete ([4]; EM-800 100 μg): 8 (50.0) Number and (%)
- Category of response: Partial ([4]; EM-800 100 μg): 0 (0) Number and (%)
- Category of response: Progression ([4]; EM-800 100 μg): 5 (31.2) Number and (%)
- Category of response: Stable ([4]; EM-800 100 μg): 3 (18.8) Number and (%)
- Average tumor weight ([4]; EM-800 100 μg): 0.04 ± 0.03 g
- Elevation of circulating 17β-estradiol vs intact animals ([5]; EM-800 0.5 mg/kg orally daily): 50%
- Endometrium histology [5, 8]: luminal epithelium is markedly reduced in height; also recorded: marked atrophy of the endometrium
- Mammary gland histology [5, 8]: lobules (L) are reduced in size; also recorded: marked atrophy of the mammary gland
- Circulating levels of 17β-estradiol ([5]; intact rats, EM-800 0.5 mg/kg orally daily): 143.5 ± 7.8 pg/mL
- Function as SERM [6]: found to function as SERMs
- Estrogenic activity in breast and endometrial tissues ([6]; physiological or pharmacological concentrations): do not have any estrogenic activity
- Additional stimulation of femoral BMD compared to 5-diol alone (ovariectomized rats; EM-800 100 μg s.c. daily added to 5-diol): 28.4%
- Effect on 5-diol action on bone volume, trabecular number and trabecular separation (histomorphometry) (ovariectomized rats; added to 5-diol, proximal tibia): further enhanced
- Decrease of serum cholesterol (ovariectomized rats; addition of EM-800 to 5-diol): 62%

Structure (SMILES): CC1=C(c2ccc(O)cc2)[C@H](c2ccc(OCCN3CCCCC3)cc2)Oc2cc(O)ccc21 [EM-652]
- concentration at 6 months [7]: 0.4 ng/mL

— patent US20030040510A1, “Selective estrogen receptor modulators in combination with estrogens” (Endorecherche, Inc., priority 2000, published 2003)
